# Reference: US9399649B2, “Compounds for treating spinal muscular atrophy” (PTC Therapeutics Inc., priority 2012, dated 2016)
# Tests used:
# Smn protein = Smn protein assay in cultured cells (SMN HTRF); format: cell-based, human; conditions: for Smn protein expression: SMA Type 1 patient fibroblast cells, 48 hour, SMN HTRF assay, FIG. 8; for EC1.5x for Smn protein expression / maximum fold (Fold) increase of Smn protein: SMA patient fibroblast cells (GM03813), 48 hours; for EC1.5x for Smn protein expression: 7-point concentration curve, concentration producing 1.5 times Smn protein vs DMSO vehicle; for maximum fold (Fold) increase of Smn protein: 7-point concentration data, relative to vehicle control
# Outline: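 SMA patient fibroblasts, 5,000 per well in DMEM-10% FBS, exposed 48 h at 37° C. to a 7-point, 3.16-fold compound series in triplicate. RIPA lysates read by SMN HTRF (665/620 nm, overnight at room temperature); ΔF over blank expressed as fold of vehicle.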
# [1] = system: gems (Smn-dependent nuclear speckles); assay: Gems count (Smn-dependent nuclear speckle count) assay; format: cell-based, human; conditions: SMA Type 1 patient cells, 48 hour, FIG. 9
# Source text: The level of Smn protein directly correlates with the amount of nuclear foci, also known as gems, produced upon staining the cell with a fluorescently labeled anti-Smn antibody (Liu and Dreyfuss, EMBO J., 1996, 15:3555). Gems are multi-protein complexes whose formation is nucleated by the Smn protein and the gems count assay is used to evaluate the level of Smn protein in the cell. As described herein, the gems count assay is used to quantify the level of Smn protein in SMA patient fibroblast cells treated with a test compound.
# Cells are thawed and incubated in DMEM-10% FBS for 72 hours, then trypsinized, counted and resuspended to 100,000 cells/mL in DMEM-10% FBS. 2 mL of the cell suspension is plated in a 6-well cell culture plate with a sterile cover slip and incubated for 3 to 5 hours. Test compounds are serially diluted 3.16-fold in 100% DMSO to generate a 7-point dilution curve. […]
# Cell culture medium is aspirated from the wells containing cover slips and gently washed three times with cold PBS. […] The number of gems is counted per ≧150 nuclei and % activation is calculated using DMSO and 10 nM bortezomib as controls. For each test compound, the cells are examined at all wavelengths to identify test compounds with inherent fluorescence.
SMILES,Smn protein expression (Smn protein),EC1.5x for Smn protein expression (Smn protein),maximum fold (Fold) increase of Smn protein (Smn protein),gems (nuclear speckle) count relative to DMSO [1]
"Cc1cn2cc(-c3cc4ccc(N5CCN(C)CC5)cc4c(=O)o3)nc2c(C)n1 [Cpd 65, 3-(6,8-dimethylimidazo[1,2-a]pyrazin-2-yl)-7-(4-methylpiperazin-1-yl)-1H-isochromen-1-one]",dose dependent increase in Smn protein expression,**** (an EC1.5×≦0.3 nM is indicated by four stars (****)),***** (a fold increase >1.65 is indicated by five stars (*****)),progressively more gems
"Cc1cn2cc(-c3cc4ccc(N5CCN6CCC[C@H]6C5)cc4c(=O)o3)nc2c(C)n1 [Cpd 69, 3-(6,8-dimethylimidazo[1,2-a]pyrazin-2-yl)-7-[(8aS)-hexahydropyrrolo[1,2-a]pyrazin-2(1H)-yl]-1H-isochromen-1-one]",dose dependent increase in Smn protein expression,**** (an EC1.5×≦0.3 nM is indicated by four stars (****)),***** (a fold increase >1.65 is indicated by five stars (*****)),progressively more gems
